{
  "source": "ChEMBL document CHEMBL1141767",
  "about": "“Lignans from bark of Larix olgensis var. koreana” (J Nat Prod, 2005)",
  "format_in_all_cases": "functional, cell-based",
  "key": {"[1]": {"assay": "Cytotoxicity against human SGH44 cells after 72 hrs by MTT assay", "settings": "SGH44, 72 h"}, "A549": {"tested_on": "A549", "assay": "Cytotoxicity against human A549 cells after 72 hrs by MTT assay", "settings": "A549, 72 h"}, "[2]": {"assay": "Cytotoxicity against human PC3M cells after 72 hrs by MTT assay", "settings": "PC-3M"}, "HCT-8": {"tested_on": "HCT-8", "assay": "Cytotoxicity against human HCT8 cells after 72 hrs by MTT assay", "settings": "HCT-8, 72 h"}, "K562": {"tested_on": "K562", "assay": "Cytotoxicity against human K562 cells after 72 hrs by MTT assay", "settings": "K562, 72 h"}},
  "data": [
    {"smiles": "COc1cc(C[C@@H]2CO[C@@H](c3ccc(O)c(OC)c3)[C@@H]2COC(=O)/C=C/c2ccc(O)cc2)ccc1O", "values": [
      {"measurement": "IC50", "setting": "[1]", "result": 21.4, "unit": "µg/mL"},
      {"measurement": "IC50", "setting": "A549", "result": 33.8, "unit": "µg/mL"},
      {"measurement": "IC50", "setting": "[2]", "result": 28, "unit": "µg/mL"},
      {"measurement": "IC50", "setting": "HCT-8", "result": 32.9, "unit": "µg/mL"},
      {"measurement": "IC50", "setting": "K562", "result": 2.9, "unit": "µg/mL"}
    ]}
  ]
}
